According to US6495678B1, “Immunosuppressant containing glucopyranose derivative as active ingredient” (Ono Pharmaceutical Co., Ltd., priority 1998, dated 2002):
Where “and” joins values, the source holds several entries; their conditions need not be identical. Equal entries are not always repeated. Marks after values point to notes of the source that are not given here.

Legend:
[1] = tested on: IFN-γ production by spleen cells; assay: In vitro OVA-stimulated IFN-γ production by spleen cells from OVA-sensitized mice; type: cell-based, mouse; details: for Amount of IFN-γ: Table 15, OVA-stimulated IFN-γ production, spleen cells, 96 hours, ELISA
Experimental: (§1) OVA-sensitized animals were prepared in accordance with the method of Nagai et al. (the method described in Example 2). Specifically, 0.5 ml of physiological saline containing 50 μg of OVA and 1 mg of aluminum hydroxide gel as adjuvant was injected twice at 12 day interval into the abdominal cavity of each of male Balb/c mice of 7 weeks of age for active sensitization. After 22, 26 and 30 days of the initial sensitization, each animal was forced to inhale 1% OVA solution for 30 minutes using an ultrasonic nebulizer. After 8 hours of the final antigen inhalation, the spleen was collected to prepare spleen cells. The spleen cells were cultured for 96 hours in the presence of 1 mg/ml of OVA, and the cytokine released in the culture supernatant was determined by ELISA method. Each of the compounds to be tested was added to a final concentration of 0.3, 1, 3, 10 or 30 μM simultaneously with OVA.

[2] = tested on: IL-4 production by spleen cells; assay: In vitro OVA-stimulated IL-4 production by spleen cells from OVA-sensitized mice; type: cell-based, mouse; details: for Amount of IL-4: Table 16, OVA-stimulated IL-4 production, spleen cells, 96 hours, ELISA
Experimental: as §1

IgE antibody production = assay: Serum IgE antibody production in mouse allergic airway inflammation model; type: in vivo; details: 24 hours' heterogeneous (rat) PCA
Experimental: (§2) The test was carried out in accordance with the method of Nagai et al. (see H. Nagai, H. Takeda, S. Yamaguchi, H. Tanaka, A. Matsuo and N. Inagaki, “The effect of thromboxane A2 receptor antagonist BAY-u-3405 on experimental allergic reactions”, Prostaglandins, 50, 75-87, 1995). Specifically, 0.5 ml of physiological saline containing 50 μg of OVA and 1 mg of aluminum hydroxide gel as adjuvant was injected twice at 12 day interval into the abdominal cavity of each of male Balb/c mice of 7 weeks of age for active sensitization. After 22, 26 and 30 days of the initial sensitization, each animal was forced to inhale 1% OVA solution for 30 minutes using an ultrasonic nebulizer to prepare a mouse allergic airway inflammation model. Total blood and BALF were collected 8 hours after the final antigen inhalation. The collected blood was allowed to stand overnight at room temperature, and then centrifuged at 300 rpm for 15 minutes, and the light yellow transparent fraction separated into the supematant was used as an antiserum. The IgE antibody titer in the antiserum was measured by 24 hours' heterogeneous (rat) PCA. On the other hand, the collected BALF supernatant was used as a sample for cytokine measurement, and the cell pellets after preparation were counted as an index of the infiltration of inflammatory cells. Each compound to be tested was continuously administered 5 days starting from the day before each sensitization and 10 days starting from the day before inhalation, at a dose of 10, 30 or 100 mg/kg in the case of oral administration or 10 mg/kg in the case of intraperitoneal or intravenous injection. Results of the measurement of IgE antibody titer in serum and amount of IL-5 and the number of eosinophils in BALF are shown in Tables 10, 11 and 12, respectively. The treatments in each group shown in each table are as follows.
(§3) Physiological saline: physiological saline stimulation+vehicle administration
(§4) Control: OVA stimulation+vehicle administration
(§5) Compound (1): OVA stimulation+Compound (1) administration

[3] = tested on: IL-2 production by spleen cells; assay: In vitro OVA-stimulated IL-2 production by spleen cells from OVA-sensitized mice; type: cell-based, mouse; details: for Amount of IL-2: spleen cells, 1 mg/ml OVA, 96 hours, ELISA
Experimental: as §1

[4] = tested on: eosinophils infiltration in BALF; assay: BALF eosinophils infiltration in mouse allergic airway inflammation model; type: in vivo
Experimental: as §2, §3, §4, §5

IL-5 production in BALF = assay: BALF IL-5 production in mouse allergic airway inflammation model; type: in vivo
Experimental: as §2, §3, §4, §5

[5] = tested on: Compound 48/80-induced scratching behavior; assay: Mouse Compound 48/80-induced itch model; type: in vivo; details: for The number of times of scratching: 20 minutes after injection of Compound 48/80
Experimental: This test was carried out in accordance with the method of Kubo et al. (Michinori Kubo, Hideaki Matsuda, Takeshi Itadaki, Yasuko Ido and Masayuki Yoshikawa, Studies on herb medicine and jifushi (first report), Anti-itching activity of 70% ethanol extract of jifushi and screening of effective component, Journal of the Pharmaceutical Society of Japan, 117(4), 193-201, 1997). Specifically, 0.1 ml of physiological saline containing Compound 48/80 (manufactured by Sigma Chemical Company) (100 μg) was administered subcutaneously into the dorsal part of each male ddy mouse of 6 to 7 weeks of age to induce scratching behavior. The scratching behavior was judged by measuring the number of times of scratching for 20 minutes immediately after the injection, by setting the behavior of each mouse to scratch the injected part with a hind leg for 1 second or more as one. Each compound to be tested was administered intravenously 1 hour before the induction.

SD rats = assay: Acute toxicity LD50, intravenous injection; type: in vivo, rat
Experimental: The toxicity of the compounds of the present invention of the formula (I) is very low and therefore, the compounds may be considered safe for pharmaceutical use. For example, LD50 of 2-deoxy-2-[3S-(9-phenylnonanoyloxy)tetradecanoyl]-amino-3-O-(9-phenylnonanoyl)-4-O-sulfo-D-glucopyranose sodium salt (The compound (1) described hereinafter) is 60-70 mg/kg on SD rats were administrated by intravenous injection.

[6] = tested on: DNFB-induced mouse ear edema; assay: DNFB-induced mouse ear edema; type: in vivo; details: for Increasing ratio of auricle thickness: 1 hour after reaction induction
Experimental: Anti-DNP-IgE antibody (3 μg/body) was administered from the caudal vein of each of female Balb/c mice of 7 weeks of age, and the reaction was induced by applying 25 μl of a 0.15% DNFB-containing acetone:olive oil (3:1) mixed solution (hereinafter referred to as “antigen”) to each of both sides of the left and right auricles 24 hours after the administration. Each compound to be tested was administered orally or intravenously 1 hour before the reaction induction. Before the reaction induction and 1 hour after the reaction induction, auricle thickness was measured using a dial sickness gage, and the average value of the left and right auricle thicknesses was used as the measured value at respective time. The value was shown by the increasing ratio of the auricle thickness from before the reaction induction. In Table 9, treatments in each group are as follows.
Vehicle: anti-DNP-IgE antibody administration+vehicle application+vehicle administration
Control: anti-DNP-IgE antibody administration+antigen application+vehicle administration
Compound (1): anti-DNP-IgE antibody administration+antigen application+Compound (1) administration

[7] = 0.3 to 30 μM, spleen cells from OVA-sensitized mice

Which “Effect on in vitro OVA-stimulated IFN-γ production” value [1, 7] does the source give for CCCCCCCCCCC[C@@H](CC(=O)N[C@H]1C(O)O[C@H](CO)[C@@H](OS(=O)(=O)[O-])[C@@H]1OC(=O)CCCCCCCCc1ccccc1)OC(=O)CCCCCCCCc1ccccc1.[Na+] (stereo partly drawn) [Compound (1), 2-deoxy-2-[3S-(9-phenylnonanoyloxy)tetradecanoyl]amino-3-O-(9-phenylnonanoyl)-4-O-sulfo-D-glucopyranose sodium] here?
The value was “significantly inhibited”.

What about the “Amount of IFN-γ” value ([1]; 0.3 μM) of the same compound?
Its value is 1462.9 ± 202.8 pg/mL.

What about the “Amount of IFN-γ” value ([1]; 1 μM) of the same compound?
The value was 658.1 ± 66.6 pg/mL.

And the “Amount of IFN-γ” value ([1]; 3 μM)?
Its value is 457.6 ± 51.0 pg/mL.

And the “Amount of IFN-γ” value ([1]; 10 μM)?
Its value is 349.7 ± 81.0 pg/mL.

And the “Amount of IFN-γ” value ([1]; 30 μM)?
Its value is 160.5 ± 42.9 pg/mL.

What about the “Effect on in vitro OVA-stimulated IL-4 production” value ([2]; 3 to 30 μM, spleen cells from OVA-sensitized mice) of the same compound?
Its value is “significantly inhibited”.

And the “Amount of IL-4” value ([2]; 0.3 μM)?
The value was 253.0 ± 45.9 pg/mL.

And the “Amount of IL-4” value ([2]; 1 μM)?
The value was 203.3 ± 37.3 pg/mL.

And the “Amount of IL-4” value ([2]; 3 μM)?
The value was 139.0 ± 19.3 pg/mL.

What about the “Amount of IL-4” value ([2]; 10 μM) of the same compound?
The value was 67.9 ± 8.1 pg/mL.

What about the “Amount of IL-4” value ([2]; 30 μM) of the same compound?
Its value is 12.8 ± 1.1 pg/mL.

And the “Serum IgE antibody titer” value (IgE antibody production; 10 mg/kg i.p.)?
Its value is 69.3 ± 17.6***^b.

What about the “Serum IgE antibody titer” value (IgE antibody production; 10 mg/kg i.v.) of the same compound?
The value was 20.0 ± 3.7***^b.

And the “Serum IgE antibody titer” value (IgE antibody production; 10 mg/kg p.o.)?
Its value is 304.0 ± 68.2.

What about the “Serum IgE antibody titer” value (IgE antibody production; 30 mg/kg p.o.) of the same compound?
Its value is 176.0 ± 35.2.

What about the “Serum IgE antibody titer” value (IgE antibody production; 100 mg/kg p.o.) of the same compound?
Its value is 120.0 ± 30.1.

And the “Amount of IL-2” value ([3]; 0.3 μM)?
The value was 48.4 ± 3.0 pg/mL.

And the “Amount of IL-2” value ([3]; 1 μM)?
The value was 36.1 ± 5.0 pg/mL.

What about the “Amount of IL-2” value ([3]; 3 μM) of the same compound?
Its value is 22.9 ± 2.9 pg/mL.

And the “Amount of IL-2” value ([3]; 10 μM)?
Its value is 11.7 ± 2.2 pg/mL.

What about the “Amount of IL-2” value ([3]; 30 μM) of the same compound?
Its value is 4.3 ± 1.7 pg/mL.

What about the “Effect on in vitro OVA-stimulated IL-2 production” value [3, 7] of the same compound?
Its value is “significantly inhibited”.

And the “The number of eosinophils in BALF” value ([4]; 10 mg/kg i.p.)?
The value was 0.0 ± 0.0*^b × 10^5 cells/BALF.

And the “The number of eosinophils in BALF” value ([4]; 10 mg/kg i.v.)?
Its value is 0.1 ± 0.0*^b × 10^5 cells/BALF.

And the “The number of eosinophils in BALF” value ([4]; 10 mg/kg p.o.)?
Its value is 1.4 ± 0.4 × 10^5 cells/BALF.

And the “The number of eosinophils in BALF” value ([4]; 30 mg/kg p.o.)?
Its value is 0.7 ± 0.2 × 10^5 cells/BALF.

What about the “The number of eosinophils in BALF” value ([4]; 100 mg/kg p.o.) of the same compound?
Its value is 0.3 ± 0.1 × 10^5 cells/BALF.

What about the “Amount of IL-5 in BALF” value (IL-5 production in BALF; 10 mg/kg i.p.) of the same compound?
Its value is 9.2 ± 1.5**^b pg/BALF.

And the “Amount of IL-5 in BALF” value (IL-5 production in BALF; 10 mg/kg i.v.)?
The value was 16.2 ± 3.8**^b pg/BALF.

And the “Amount of IL-5 in BALF” value (IL-5 production in BALF; 10 mg/kg p.o.)?
Its value is 65.1 ± 15.9 pg/BALF.

And the “Amount of IL-5 in BALF” value (IL-5 production in BALF; 30 mg/kg p.o.)?
Its value is 50.8 ± 13.7 pg/BALF.

What about the “Amount of IL-5 in BALF” value (IL-5 production in BALF; 100 mg/kg p.o.) of the same compound?
Its value is 26.7 ± 7.5 pg/BALF.

What about the “The number of times of scratching” value ([5]; 1 mg/kg intravenously) of the same compound?
The value was 68.6 ± 18.8.

And the “The number of times of scratching” value ([5]; 3 mg/kg intravenously)?
Its value is 61.3 ± 9.9.

What about the “The number of times of scratching” value ([5]; 10 mg/kg intravenously) of the same compound?
The value was 26.8 ± 16.8.

What about the “The number of times of scratching” value ([5]; 30 mg/kg intravenously) of the same compound?
The value was 6.3 ± 4.4.

What about the “Effect on scratching behavior” value ([5]; 10 or 30 mg/kg intravenously) of the same compound?
Its value is “significantly reduced scratching behavior”.

And the LD50 (SD rats)?
The LD50 was 60 to 70 mg/kg.

What about the “Increasing ratio of auricle thickness” value ([6]; 10 mg/kg i.v.) of the same compound?
Its value is 16.4 ± 1.9%.

What about the “Increasing ratio of auricle thickness” value ([6]; 10 mg/kg p.o.) of the same compound?
Its value is 14.3 ± 1.8%.

And the “Inhibition of increase in the auricle thickness” value ([6]; 40 mg/kg oral administration, versus control)?
Its value is 45%.

What about the “Increasing ratio of auricle thickness” value ([6]; 40 mg/kg p.o.) of the same compound?
Its value is 10.2% and 10.2 ± 1.6 %.
